Experimental data published in patent US8188046B2, “Amyloid beta peptides and methods of use” (University of South Florida, priority 2006, dated 2012).

Experiments:
[1] = system: patients aged 50 to 85 years with probable AD; settings: with adjuvant QS-21 and polysorbate 80, cited from earlier work
BALB/c mice [2] = assay: Mouse anti-Abeta IgG isotyping (Th1/Th2 response); assay type: in vivo; settings: n=4; for Anti-Abeta antibody isotype: peptide vaccination without adjuvant
Excerpt: To further confirm the inflammation issue, we detected type one and type two T cell response by using the mouse anti-Abeta IgG isotyping method. […] (see FIG. 10).

mice = assay: T cell epitope mapping: antibody production after vaccination with DCs treated with Abeta fragments (FIG. 11); assay type: in vivo, mouse; settings: two vaccinations with DCs, 1×10^6 cells/mice, treated with 20 μg/million cell; ELISA 1:800 dilutions
Excerpt: FIG. 11. Mapping result of T cell epitope with Abeta fragment carrying Dutch mutation by ELISA.

BALB/c mice [3] = assay: Antibody titer by ELISA after adjuvant-free subcutaneous Abeta peptide vaccination; assay type: in vivo, mouse; settings: boost 50 ug/mice six months post third inoculation; ELISA 10 days later; no adjuvant
Protocol: Peptides: Aβ 1-42 and related peptides were obtained from Synpep (Dublin, Calif.). Peptides for vaccination were reconstituted to 10 mg/ml in DMSO and further diluted to 2 mg/ml with phosphate buffered saline.
Mice: 10 weeks old female BALB/c mice from the Jackson laboratories were housed in Varian standard cages including amber igloos and vaccinated when 14 weeks old. A total of 28 mice were grouped into 7 vaccination groups each with four animals. Differently mutated Aβ1-42 peptides were used for each group and a 1×PBS (also containing 10% DMSO) as a control group. Initial subcutaneous vaccination began at 100 μg peptide in 100 μl VEHICLE and subsequent booster vaccinations proceeded at 100 μg peptide (100 μl) at two weeks intervals. A third inoculation was carried out with 50 μg peptide in 100 μl.
Bleeding and plasma collection procedures: 10 days after injection, mice were bled by submandibular phlebotomy into EDTA tubes, and plasma was separated by centrifugation at 1500 g for 20 minutes with StatSampler from StatSpin (MA). Plasma were isolated by centrifugation and frozen at −80° C.
Antibody titer determination: Anti-amyloid beta antibody (6E10) was purchased from Signet Laboratories (Dedham, Mass.) and used as positive control. […] Plates were read at 450 nm/630 nm, and samples with readings three times higher than controls were considered positive. […]

Substance | Anti-Abeta antibody isotype (BALB/c mice [2]) | Antibody production (mice) | also measured
AN1792: wild type amyloid beta 1-42 peptide used as a vaccine with adjuvant QS-21 and polysorbate 80 | – | – | Occurrence of meningoencephalitis, subset of patients ([1]; Phase II): 6%; Clinical benefits in follow up study of vaccinated patients [1]: reduced AD-like pathology and improved cognition
PFM: Abeta 1-42 with Flemish mutation, aa16-24 KLVFFGEDV | IgG2a response | – | –
PFDM: Abeta 1-42 with both Flemish and Dutch mutation, aa16-24 KLVFFGQDV | IgG2a response | – | –
Abeta 1-25: Abeta fragment 1-25 [reference compound] | – | no antibody production | –
PDM: Abeta 1-42 with Dutch mutation, aa16-24 KLVFFAQDV | – | – | Long term antibody and memory response after boost (BALB/c mice [3]): induce long term antibody response and with a good memory response; Th response by antibody isotyping with adjuvant (BALB/c mice [2]; adjuvant MPL treated vaccine compared to no adjuvant): adjuvant clearly induces a Th1 response
DAEFRHDSGYEVHHQKLVFFAQDVGSNKGAIIGLM [Abeta 1-35 carrying Dutch mutation, Aβ 1-35 with Dutch mutation] | – | antibody production | –
